Test results published in patent publication US20120129811A1, “TRICYCLIC INHIBITORS OF PRO-MATRIX METALLOPROTEINASE ACTIVATION” (priority 2010, published 2012).

Legend:
[1] = test system: rats with SCW-induced arthritis; experiment: Efficacy in rats with SCW-induced arthritis (ankle thickness, clinical scores); type: in vivo, rat; settings: for Ankle thickness, Day 18 / Clinical Scores (0-8), Day 18: Day 18 (start of treatment); for Ankle thickness, Day 18 / Ankle thickness, Day 26 / Clinical Scores (0-8), Day 18 / Clinical Scores (0-8), Day 26: mean n=5; for % Inh (disease associated increase in ankle thickness): Day 26
Text: A polyarthritis can be induced in female Lewis rats following i.p. administration of streptococcal cell wall (SCW) proteoglycan-polysaccharides (PG-PS) (J Exp Med 1977; 146:1585-1602). The model has an acute phase (days 3-7) that is complement and neutrophil-dependent and that resolves. A chronic erosive phase begins at about day ten and is dependent on the development of specific T cell immunity to the PG-GS, which resists digestion and remains present in synovial macrophages for months. Like rheumatoid arthritis, SCW-induced arthritis is reduced by TNF inhibitors, and the dependence of SCW-induced arthritis on macrophages (Rheumatology; 2001; 40:978-987) and the strong association of rheumatoid arthritis severity with synovial-tissue macrophage counts (Ann Rheum Dis; 2005; 64:834-838) makes SCW-arthritis an attractive model for testing potential therapeutic agents. SCW PG-PS 10S (Beckton Dickinson Cat#210866) suspended in saline was vortexed for 30 seconds and sonicated for 3 min with a probe type sonicator prior to injection. Female Lewis (LEW/N) rats, 5-6 weeks of age (80-100 g) were injected (i.p.) with SCW PG-PS (15 μg of rhamnose/gram BW) in the lower left quadrant of the abdomen using a 1 mL syringe fitted with a 23-gauge needle. Control (disease-free) rats were treated in a similar manner with sterile saline. Control rats were sacrificed on day 5 and groups of SCW-injected rats were sacrificed on day 5 when acute inflammation was maximal or on day 18 when chronic inflammation was established.
To induce arthritis, Female Lewis (LEW/N) rats, 5-6 weeks of age (80-100 g) were injected (i.p.) with SCW PG-PS as described above. Eighteen days later, arthritis was well established. Calipers were used to measure the width (anterior to posterior surface) of the left and right hind ankles of each rat. Each ankle was measured 3 times and averaged, and treatment groups were randomized based on ankle thickness (Table 6). Commencing on day 18, randomized groups of arthritic rats (n=5 rats/group) received vehicle or 5, 20, or 50 mg/kg Compound-α BID by oral gavage. Vehicle consisted of an aqueous mixture containing 2% (v:v) N-methylpyrrolidone, 5% (v:v) glycerine, and 20% (w:v) captisol. Treatment continued daily through the morning of day 26.
Hind paw inflammation clinical scores were assigned based on swelling and erythema.

[2] = target: T1, MMP9 mediated gelatinase activity (Rattus norvegicus, UniProt P50282); experiment: In situ zymography of gelatinase activity in livers of SCW-induced rats dosed with Compound-α; type: in vivo; settings: for Intensity, Rat 1 / Intensity, Rat 2 / Intensity, Rat 3 / Intensity, Mean: SCW, liver; for Intensity, Mean: n=3
T1 construct: from tissue; host or cells: frozen liver sections of female Lewis rats
T1 sequence (P50282 20-708): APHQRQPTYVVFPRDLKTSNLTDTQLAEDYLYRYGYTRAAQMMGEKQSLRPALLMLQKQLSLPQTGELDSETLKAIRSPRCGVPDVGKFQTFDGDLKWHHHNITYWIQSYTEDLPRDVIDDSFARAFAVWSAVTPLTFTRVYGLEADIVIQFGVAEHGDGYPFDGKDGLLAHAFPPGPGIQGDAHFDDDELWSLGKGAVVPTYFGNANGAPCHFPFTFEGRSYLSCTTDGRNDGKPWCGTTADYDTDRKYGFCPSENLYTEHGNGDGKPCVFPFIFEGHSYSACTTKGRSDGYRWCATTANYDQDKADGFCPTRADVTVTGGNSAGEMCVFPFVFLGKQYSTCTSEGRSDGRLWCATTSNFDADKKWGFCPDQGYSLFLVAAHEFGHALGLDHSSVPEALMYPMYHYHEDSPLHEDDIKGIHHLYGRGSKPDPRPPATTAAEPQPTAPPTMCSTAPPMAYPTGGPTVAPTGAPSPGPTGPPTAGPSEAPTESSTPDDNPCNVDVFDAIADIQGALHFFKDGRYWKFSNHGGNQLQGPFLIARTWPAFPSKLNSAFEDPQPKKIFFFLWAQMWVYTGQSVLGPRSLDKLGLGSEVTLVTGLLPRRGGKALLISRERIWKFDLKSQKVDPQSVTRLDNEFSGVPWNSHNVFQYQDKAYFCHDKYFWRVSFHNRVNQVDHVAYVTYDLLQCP
Text: In situ zymography provides an alternative approach to assess active MMP9 in tissues (Frederiks). Tissue sections are overlain with fluorescene-conjugated gelatin wherein the conjugation is sufficiently dense to cause the fluorescene to be dye-quenched (DQ). Proteolytic degradation of the DQ-gelatin releases the fluorescene from the quenching effect giving rise to bright green fluorescence at the site of degradation. Because in situ zymography requires the use of frozen sections, calcified tissues are problematic. However, an additional feature of the SCW arthritis model is the development of hepatic granulomatous disease (J Immunol; 1986; 137:2199-2209), and MMP9 reportedly plays a role in macrophage recruitment in the granulomas response to mycobacteria (Infect Immun; 2006; 74:6135-6144). Consequently, granulomatous livers from SCW-treated rats were assessed for active MMP9 by in situ zymography.
As described above, Female Lewis (LEW/N) rats, 5-6 weeks of age (80-100 g) were injected (i.p.) with saline or SCW PG-PS. On day 28, when the granulomatous response was well established, animals were sacrificed and livers were frozen in OCT cryo-sectioning medium and 10 μm sections were cut on a Cryome HM 500 M cryotome and mounted on glass microscope slides. Sections were air dried briefly. MMP9 was confirmed as the source of the gelatinase activity in the liver by treating liver sections with monoclonal antibodies directed against the active site of the two major gelatinases MMP9 and MMP2. Liver sections overlain with 50 μL of 100 μg/mL neutralizing mouse monoclonal antibodies directed against MMP9 (Calbiochem, clone 6-6B), or MMP2 (Millipore, clone CA-4001), or with PBS for 1 hr at room temperature. Tissues were rinsed once with PBS, blotted, and briefly air dried and then overlain with DQ-gelatin (Invitrogen) dissolved to 1 mg/mL in deionized water and then diluted 1:10 in 1% wt/vol low gelling point agarose type VII (Sigma) in PBS. The sections were covered with coverslips, incubated in the dark at room temperature for 20 min, and imaged on an Olympus IX80 inverted microscope fitted with fluorescence optics, using SlideBook™ imaging software (Intelligent Imaging Innovations, Inc., Philadelphia, Pa.; version 5.0). Fluorescence intensity was determined (Table 8). When compared to a saline-treated rat, gelatinase activity was abundantly expressed in granulomatous liver sections obtained from a rat with SCW arthritis.
Next, liver in situ zymography was used to assess the relative presence of active MMP9 in rats dosed with vehicle vs. Compound-α. Female Lewis (LEW/N) rats, 5-6 weeks of age (80-100 g) were injected (i.p.) with saline or SCW PG-PS. Commencing on day 25, randomized groups of rats (n=3 rats/group) received vehicle or 20 or 50 mg/kg Compound-α BID by oral gavage. Vehicle consisted of an aqueous mixture containing 2% (v:v) N-methylpyrrolidone, 5% (v:v) glycerine, and 20% (w:v) captisol. Treatment continued daily through the morning of day 28. Four hrs after the AM dose on day 28, rats were sacrificed and livers assessed for active MMP9 by in situ zymography (Table 9). Gelatinase activity was increased markedly in SCW-induced rats, but activity was reduced by approximately 80% in animals treated with 50 mg/kg Compound-α.

[3] = 5 mg/kg BID oral gavage Day 18-26
[4] = 20 mg/kg BID oral gavage Day 18-26
[5] = 50 mg/kg BID oral gavage Day 18-26
[6] = 20 mg/kg BID oral gavage Day 25-28
[7] = 50 mg/kg BID oral gavage Day 25-28

## Cc1nc(C)c(-c2csc(Nc3cc(S(N)(=O)=O)ccc3OC(C)C)n2)s1 [Compound α, 3-(2′,4′-Dimethyl-[4,5′]bithiazolyl-2-ylamino)-4-isopropoxy-benzenesulfonamide.HBr]
[1]; [3]
  Day 26 Δ mm (vs. group 1): 3.67 mm
  Ankle thickness, Day 18: 11.79 mm
  % Inh (disease associated increase in ankle thickness): 27%
  Ankle thickness, Day 26: 10.93 mm
[1]; 5 mg/kg Day 18-26
  Clinical Scores, Δ Day 18 vs. day 26: −1.20
  Clinical Scores (0-8), Day 18: 8.00
  Clinical Scores (0-8), Day 26: 6.80
[1]; [4]
  Day 26 Δ mm (vs. group 1): 3.15 mm
  Ankle thickness, Day 18: 11.76 mm
  % Inh (disease associated increase in ankle thickness): 37%
  Ankle thickness, Day 26: 10.42 mm
[1]; 20 mg/kg Day 18-26
  Clinical Scores, Δ Day 18 vs. day 26: −2.80
  Clinical Scores (0-8), Day 18: 8.00
  Clinical Scores (0-8), Day 26: 5.20
[1]; [5]
  Day 26 Δ mm (vs. group 1): 2.73 mm
  Ankle thickness, Day 18: 11.68 mm
  % Inh (disease associated increase in ankle thickness): 46%
  Ankle thickness, Day 26: 9.99 mm
[1]; 50 mg/kg Day 18-26
  Clinical Scores, Δ Day 18 vs. day 26: −3.40
  Clinical Scores (0-8), Day 18: 7.80
  Clinical Scores (0-8), Day 26: 4.40
[1]; 5, 20, 50 mg/kg BID, Day 18-26
  effect on ankle thickness measurements: dose-dependent decrease in ankle thickness measurements
  effect on clinical score measurements: dose dependent decrease in clinical score measurements
[2]; 50 mg/kg, SCW-induced rats, day 28
  reduction of gelatinase activity in liver: approximately 80%
[2]; [6]
  Intensity, Rat 1: 43.0 RLU × 10^6
  Intensity, Rat 2: 69.0 RLU × 10^6
  Intensity, Rat 3: 53.7 RLU × 10^6
  Intensity, Mean: 55.2 RLU × 10^6
[2]; [7]
  Intensity, Rat 1: 3.2 RLU × 10^6
  Intensity, Rat 2: 25.6 RLU × 10^6
  Intensity, Rat 3: 4.5 RLU × 10^6
  Intensity, Mean: 11.1 RLU × 10^6
